Measured values reported in patent US20240366553A1, “ASPARTIC ACID COPPER COMPLEX, AND USE THEREOF” (GUANGZHOU INSIGHTER BIOTECHNOLOGY CO., LTD., priority 2021, published 2024).
Where two headings read alike, the source gives them in different places.

What was measured:
[1] = tested on: weaned piglets; settings: for Average weight gain / Feed-to-meat ratio / Survival rate (%) / Total feed consumption / Total weight gain / Relative weight gain rate (%): weaned piglets, 30 days; for Total feed consumption / Total weight gain: 10 pigs; for Relative weight gain rate (%): control group = 100
Excerpt: (§1) Experimental animals: 900 one-day-old Lingnan yellow-feathered, fast-growing, and large-sized broilers; 150 weaned piglets;
(§2) Feeds: basal feed for chickens and basal feed for pigs that contain no antimicrobial drugs, copper sources and growth promoters;
(§3) Experimental samples: compound 1, compound 2, compound 3, compound 4, compound 5, compound 6, compound 7,
150 weaned piglets were grouped according to Table 2 (10 piglets/group). […] The piglets had free access to food. The weight gain and feed conversion of the experimental pigs in each experimental group were recorded within 30 days after […] weaning.

[2] = tested on: black carp (subyearlings); experiment: Use of aspartic acid copper complex in aquaculture feeds (black carp breeding experiment); type: in vivo; settings: 30 mg/kg in feed (as copper ions), 8 weeks
Protocol: Experimental fishes: The experimental fishes used were black carp (subyearlings), which were provided by the Dafeng fish nursery (Huizhou city, Guangdong province). Healthy and active fingerling black carps (uniform in size) were fed for 4 weeks in a big net cage (4×2×1.5 m^3) and then the formal breeding experiment was carried out. The experimental systems were small floating net cages (1.1×1.1×1.1 m^3 in size). Each small net cage was provided with an air-filling head, which allowed for continuous inflation of the cages for 24 h a day. The small net cages and the acclimatization net cage were all placed in a 3500 m^2 pond in the experimental field. […] During the trial, 480 black carps (fasted for 1 d) were randomly divided into 10 groups, with 4 replicates for each group and 12 fishes in each replicate. After weighing as a whole, the black carps were randomly placed into […] and fed with different experimental feeds.
Experimental feeds: The experimental feeds were formulated following the formula in Table 5. According to Table 6, different copper element supplements (calculated based on the copper ions) were added to the feeds in different experimental groups, respectively. The feed raw materials were subjected to ultrafine grinding and then granulated into floating expanded feeds (3 mm) using an expansion machine from Jiangsu Muyang Corporation. The demolding temperature was 130° C. 3% soybean oil was externally sprayed using an oil spraying device. The finished product was sealed and stored in a cool place for later use.
Experimental management: During the trial, the carps were manually fed in a restricted dose. The feeding dose was adjusted once a week, and the doses for all groups (based on the initial body weight) were completely consistent. The carps were fed twice a day (at 7:30 and 15:00). The experiment lasted for 8 weeks. During the trial, the water quality was regularly monitored, and throughout the breeding, the water temperature was kept at 26.88±3.08° C., DO>5.0 mg O L^−1, pH 7.8, ammonia nitrogen<0.50 mg NL^−1, and nitrite-nitrogen<0.05 mg N L^−1.
Parametric statistics: During the trial, the carps in each net cage were weighed as a whole one day after discontinuation of feeding, and the average weight gain (g) and feed-to-meat ratio were calculated. The calculation formulas are as follows:
Average weight gain (g)=Average final weight−Average initial weight; Feed-to-meat ratio=Food intake/Weight gain of fishes;

[3] = tested on: Lingnan yellow-feathered, fast-growing, and large-sized broilers; settings: for Average feed consumption / Average weight gain / Feed-to-meat ratio / Survival rate (%) / Relative weight gain rate (%): broilers aged 1 to 21 days; for Relative weight gain rate (%): relative to control group; for Physical characteristics of the experimental chickens: experimental groups of compounds 1-7
Excerpt: as §1, §2, §3
900 one-day-old Lingnan yellow-feathered, fast-growing, and large-sized broilers were randomly divided into 18 groups (50 broilers/group). […] The broilers had free access to food. The weight gain and feed conversion of the experimental chickens (aged from 1 to 21 days) in each experimental group were recorded.

[4] = 8 mg/kg in feed (as copper ion)
[5] = 50 mg/kg in feed (as copper ion)
[6] = 100 mg/kg in feed (as copper ion)
[7] = group 1-30: 30 mg/kg in feed (as copper ion)
[8] = group 1-200: 200 mg/kg in feed (as copper ion)
[9] = 5 mg/kg in feed (as copper ion)
[10] = 200 mg/kg in feed (as copper ion)
[11] = 300 mg/kg in feed (as copper ion)
[12] = 50 mg/kg (as copper ion), versus control

N[C@@H](CC(=O)[O-])C(=O)[O-].O.O.[Cu+2] [Compound 1, [(Cu(II))(L-Asp)(H2O)2]]
Average weight gain [1, 4]: 11.26 kg | Feed-to-meat ratio [1, 4]: 2.268 | Survival rate (%) [1, 4]: 100% | Total feed consumption [1, 4]: 255.34 kg | Total weight gain [1, 4]: 112.6 kg | Relative weight gain rate (%) [1, 4]: 103.30% | Average weight gain [1, 5]: 12.12 kg | Feed-to-meat ratio [1, 5]: 2.121 | Survival rate (%) [1, 5]: 100% | Total feed consumption [1, 5]: 257.08 kg | Total weight gain [1, 5]: 121.2 kg | Relative weight gain rate (%) [1, 5]: 111.19% | Average weight gain [1, 6]: 12.21 kg | Feed-to-meat ratio [1, 6]: 2.112 | Survival rate (%) [1, 6]: 100% | Total feed consumption [1, 6]: 257.86 kg | Total weight gain [1, 6]: 122.1 kg | Relative weight gain rate (%) [1, 6]: 112.02% | Dose effect on improving the production performance of the experimental pigs ([1]; 8-200 mg/kg groups): exhibited a dose effect | Growth-promoting effect and feed conversion rate versus high-level copper sulfate group ([1]; dose of 50 mg/kg, comparator copper sulfate 250 mg/kg): close to those achieved in the high-level copper sulfate group | Average weight gain [1, 7]: 11.66 kg | Feed-to-meat ratio [1, 7]: 2.205 | Survival rate (%) [1, 7]: 100% | Total feed consumption [1, 7]: 257.09 kg | Total weight gain [1, 7]: 116.6 kg | Relative weight gain rate (%) [1, 7]: 106.97% | Average weight gain [1, 8]: 12.34 kg | Feed-to-meat ratio [1, 8]: 2.093 | Survival rate (%) [1, 8]: 100% | Total feed consumption [1, 8]: 258.28 kg | Total weight gain [1, 8]: 123.4 kg | Relative weight gain rate (%) [1, 8]: 113.21% | Improvement in the feed conversion of the experimental pigs compared with compound 4 ([1]; used at the same doses (50 mg/kg)): about 2 fold | Average weight gain [2]: 357 g | Feed-to-meat ratio [2]: 1.401 | Average feed consumption [3, 9]: 916 g | Average weight gain [3, 9]: 497 g | Feed-to-meat ratio [3, 9]: 1.843 | Survival rate (%) [3, 9]: 100% | Relative weight gain rate (%) [3, 9]: 104.9% | Average feed consumption [3, 5]: 923 g | Average weight gain [3, 5]: 518 g | Feed-to-meat ratio [3, 5]: 1.782 | Survival rate (%) [3, 5]: 100% | Relative weight gain rate (%) [3, 5]: 109.3% | Average feed consumption [3, 6]: 970 g | Average weight gain [3, 6]: 546 g | Feed-to-meat ratio [3, 6]: 1.777 | Survival rate (%) [3, 6]: 100% | Relative weight gain rate (%) [3, 6]: 115.2% | Average feed consumption [3, 10]: 1004 g | Average weight gain [3, 10]: 567 g | Feed-to-meat ratio [3, 10]: 1.771 | Survival rate (%) [3, 10]: 100% | Relative weight gain rate (%) [3, 10]: 119.6% | Average feed consumption [3, 11]: 926 g | Average weight gain [3, 11]: 526 g | Feed-to-meat ratio [3, 11]: 1.760 | Survival rate (%) [3, 11]: 100% | Relative weight gain rate (%) [3, 11]: 111.0% | Dose effect in the experimental results (broilers) ([3]; addition amount of 50-100 mg/kg): exhibited a dose effect | Physical characteristics of the experimental chickens [3]: normal physical characteristics | Average feed consumption [3, 7]: 919 g | Average weight gain [3, 7]: 511 g | Feed-to-meat ratio [3, 7]: 1.798 | Survival rate (%) [3, 7]: 100% | Relative weight gain rate (%) [3, 7]: 107.8%

N[C@@H](CC(=O)[O-])C(=O)[O-].[Cu+2] [Compound 4, [(Cu(II))(L-Asp)]]
Average weight gain [1, 5]: 11.67 kg | Feed-to-meat ratio [1, 5]: 2.208 | Survival rate (%) [1, 5]: 100% | Total feed consumption [1, 5]: 257.63 kg | Total weight gain [1, 5]: 116.7 kg | Relative weight gain rate (%) [1, 5]: 107.06% | Average weight gain [2]: 344 g | Feed-to-meat ratio [2]: 1.453 | Feed conversion decreased by [3, 12]: 3.23% | Relative weight gain rate increased by [3, 12]: 7.2% | Average feed consumption [3, 5]: 924 g | Average weight gain [3, 5]: 508 g | Feed-to-meat ratio [3, 5]: 1.819 | Survival rate (%) [3, 5]: 100% | Relative weight gain rate (%) [3, 5]: 107.2% | Physical characteristics of the experimental chickens [3]: normal physical characteristics
